Assay results taken from patent publication US20100080770A1, “Hepatitis C Virus Inhibitors” (priority 2008, published 2010).
Like-named read-outs stand apart in the source and are kept apart here.

Columns and labels:
[1] = target: T1, HCV NS3/4A protease complex (Hepatitis C virus genotype 1a, UniProt P27958, C1454S/C1711G); assay: FRET peptide assay to monitor HCV NS3/4A proteolytic activity; type: biochemical; details: HCV NS3/4A protease complex, strain not stated, read-out: IC50
T1 construct: recombinant HCV NS3/4A protease complex (amino acids 1027 to 1711); inferred from the pET21b vector and Ni-NTA purification; made in house; host or cells: Escherichia coli BL21 (DE3)
T1 sequence (P27958 1027-1711 C1454S/C1711G, one chain of several): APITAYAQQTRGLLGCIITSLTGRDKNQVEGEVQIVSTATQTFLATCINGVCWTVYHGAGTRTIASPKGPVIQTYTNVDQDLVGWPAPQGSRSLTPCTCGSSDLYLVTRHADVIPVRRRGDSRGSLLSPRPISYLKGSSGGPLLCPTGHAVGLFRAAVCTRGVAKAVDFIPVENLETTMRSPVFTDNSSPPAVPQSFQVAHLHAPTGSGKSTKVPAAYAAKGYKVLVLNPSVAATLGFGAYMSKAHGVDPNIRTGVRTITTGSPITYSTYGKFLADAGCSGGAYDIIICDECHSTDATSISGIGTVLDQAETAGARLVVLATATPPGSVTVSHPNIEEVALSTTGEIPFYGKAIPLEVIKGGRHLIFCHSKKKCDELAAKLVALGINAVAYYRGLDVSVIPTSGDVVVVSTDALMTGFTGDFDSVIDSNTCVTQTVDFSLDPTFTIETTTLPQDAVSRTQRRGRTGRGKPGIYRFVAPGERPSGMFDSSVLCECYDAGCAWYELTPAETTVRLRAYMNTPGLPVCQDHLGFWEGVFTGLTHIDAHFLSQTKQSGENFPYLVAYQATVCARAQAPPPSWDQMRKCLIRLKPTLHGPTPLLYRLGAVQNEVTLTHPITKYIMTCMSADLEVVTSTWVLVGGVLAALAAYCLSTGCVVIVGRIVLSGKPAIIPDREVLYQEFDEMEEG
Excerpt: HCV NS3 protease complexes, derived from the BMS strain, H77 strain or J4L6S strain, were generated, as described below. These purified recombinant proteins were generated for use in a homogeneous assay (see below) to provide an indication of how effective compounds of the present disclosure would be in inhibiting HCV NS3 proteolytic activity.
The H77 and J4L6S strains were used for production of recombinant NS3/4A protease complexes. DNA encoding the recombinant HCV NS3/4A protease complex (amino acids 1027 to 1711) for these strains was manipulated as described by P. Gallinari et al. (see Gallinari P, Paolini C, Brennan D, Nardi C, Steinkuhler C, De Francesco R. Biochemistry. 38(17):5620-32, (1999)). Briefly, a three-lysine solubilizing tail was added at the 3′-end of the NS4A coding region. The cysteine in the P1 position of the NS4A-NS4B cleavage site (amino acid 1711) was changed to a glycine to avoid the proteolytic cleavage of the lysine tag. Furthermore, a cysteine to serine mutation was introduced by PCR at amino acid position 1454 to prevent the autolytic cleavage in the NS3 helicase domain. The variant DNA fragment was cloned in the pET21b bacterial expression vector (Novagen) and the NS3/4A complex was expressed in Escherichia coli strain BL21 (DE3) (Invitrogen) following the protocol described by P. Gallinari et al. (see Gallinari P, Brennan D, Nardi C, Brunetti M, Tomei L, Steinkuhler C, De Francesco R., J Virol. 72(8):6758-69 (1998)) with modifications. Briefly, the NS3/4A protease complex expression was induced with 0.5 millimolar (mM) Isopropyl β-D-1-thiogalactopyranoside (IPTG) for 22 hours (h) at 20° C. A typical fermentation (1 Liter (L)) yielded approximately 10 grams (g) of wet cell paste. The cells were resuspended in lysis buffer (10 mL/g) consisting of 25 mM N-(2-Hydroxyethyl)Piperazine-N′-(2-Ethane Sulfonic acid) (HEPES), pH 7.5, 20% glycerol, 500 mM Sodium Chloride (NaCl), 0.5% Triton X-100, 1 microgram/milliliter (“μg/mL”) lysozyme, 5 mM Magnesium Chloride (MgCl2), 1 μg/ml DnaseI, 5 mM β-Mercaptoethanol (βME), Protease inhibitor-Ethylenediamine Tetraacetic acid (EDTA) free (Roche), homogenized and incubated for 20 minutes (min) at 4° C. The homogenate was sonicated and clarified by ultra-centrifugation at 235000 g for 1 hour (h) at 4° C. Imidazole was added to the supernatant to a final concentration of 15 mM and the pH adjusted to 8.0. The crude protein extract was loaded on a Nickel-Nitrilotriacetic acid (Ni-NTA) column pre-equilibrated with buffer B (25 mM HEPES, pH 8.0, 20% glycerol, 500 mM NaCl, 0.5% Triton X-100, 15 mM imidazole, 5 mM βME). The sample was loaded at a flow rate of 1 ml/min. The column was washed with 15 column volumes of buffer C (same as buffer B except with 0.2% Triton X-100). The protein was eluted with 5 column volumes of buffer D (same as buffer C except with 200 mM Imidazole).
NS3/4A protease complex-containing fractions were pooled and loaded on a desalting column Superdex-S200 pre-equilibrated with buffer D (25mM HEPES, pH 7.5, 20% glycerol, 300 mM NaCl, 0.2% Triton X-100, 10 mM βME). Sample was loaded at a flow rate of 1 mL/min. NS3/4A protease complex-containing fractions were pooled and concentrated to approximately 0.5 mg/ml. The purity of the NS3/4A protease complexes, derived from the BMS, H77 and J4L6S strains, were judged to be greater than 90% by SDS-PAGE and mass spectrometry analyses. The enzyme was stored at −80° C., thawed on ice and diluted prior to use in assay buffer.
The purpose of this in vitro assay was to measure the inhibition of HCV NS3 protease complexes, derived from the BMS strain, H77 strain or J4L6S strain, as described above, by compounds of the present disclosure. This assay provides an indication of how effective compounds of the present disclosure would be in inhibiting HCV NS3 proteolytic activity.
In order to monitor HCV NS3/4A protease activity, an NS3/4A peptide substrate was used. […]

[2] = tested on: HCV replicon in HUH-7 cells; assay: HCV replicon assay (FRET, confirmed in the luciferase reporter assay); type: cell-based; details: Hepatitis C virus, 96 h, 4 days
Excerpt: An HCV replicon whole cell system was established as described by Lohmann V, Korner F, Koch J, Herian U, Theilmann L, Bartenschlager R., Science 285(5424):110-3 (1999). This system enabled us to evaluate the effects of our HCV Protease compounds on HCV RNA replication. Briefly, using the HCV strain 1b sequence described in the Lohmann paper (Assession number: AJ238799), an HCV cDNA was synthesized by Operon Technologies, Inc. (Alameda, Calif.), and the full-length replicon was then assembled in plasmid pGem9zf(+) (Promega, Madison, Wis.) using standard molecular biology techniques. The replicon consists of (i) the HCV 5′ UTR fused to the first 12 amino acids of the capsid protein, (ii) the neomycin phosphotransferase gene (neo), (iii) the IRES from encephalomyocarditis virus (EMCV), and (iv) HCV NS3. to NS5B genes and the HCV 3′ UTR. Plasmid DNAs were linearized with Seal and RNA transcripts were synthesized in vitro using the T7 MegaScript transcription kit (Ambion, Austin, Tex.) according to manufacturer's directions. In vitro transcripts of the cDNA were transfected into the human hepatoma cell line, HUH-7. […] Resulting cell lines were characterized for positive and negative strand RNA production and protein production over time.
The HCV replicon FRET assay was developed to monitor the inhibitory effects of compounds described in the disclosure on HCV viral replication. HUH-7 cells, constitutively expressing the HCV replicon, were grown in Dulbecco's Modified Eagle Media (DMEM) (Gibco-BRL) containing 10% Fetal calf serum (FCS) (Sigma) and 1 mg/ml G418 (Gibco-BRL). Cells were seeded the night before (1.5×10^4 cells/well) in 96-well tissue-culture sterile plates. Compound and no compound controls were prepared in DMEM containing 4% FCS, 1:100 Penicillin/Streptomysin (Gibco-BRL), 1:100 L-glutamine and 5% DMSO in the dilution plate (0.5% DMSO final concentration in the assay). Compound/DMSO mixes were added to the cells and incubated for 4 days at 37° C. After 4 days, cells were first assessed for cytotoxicity using alamar Blue (Trek Diagnotstic Systems) for a CC50 reading. The toxicity of compound (CC50) was determined by adding 1/10th volume of alamar Blue to the media incubating the cells. After 4 h, the fluorescence signal from each well was read, with an excitation wavelength at 530 nm and an emission wavelength of 580 nm, using the Cytofluor Series 4000 (Perspective Biosystems). Plates were then rinsed thoroughly with Phosphate-Buffered Saline (PBS) (3 times 150 μl).
As a secondary assay, EC50 determinations from the replicon FRET assay were confirmed in a replicon luciferase reporter assay. Utilization of a replicon luciferase reporter assay was first described by Krieger et al (Krieger N, Lohmann V, and Bartenschlager R, J. Virol. 75(10):4614-4624 (2001)). The replicon construct described for our FRET assay was modified by inserting cDNA encoding a humanized form of the Renilla luciferase gene and a linker sequence fused directly to the 3′-end of the luciferase gene. This insert was introduced into the replicon construct using an Ascl restriction site located in core, directly upstream of the neomycin marker gene. The adaptive mutation at position 1179 (serine to isoleucine) was also introduced (Blight K J, Kolykhalov, A A, Rice, C M, Science 290(5498):1972-1974). A stable cell line constitutively expressing this HCV replicon construct was generated as described above. The luciferase reporter assay was set up as described for the HCV replicon FRET assay with the following modifications. Following 4 days in a 37° C./5% CO2 incubator, cells were analyzed for Renilla Luciferase activity using the Promega Dual-Glo Luciferase Assay System. Media (100 μl) was removed from each well containing cells. To the remaining 50 μl of media, 50 μl of Dual-Glo Luciferase Reagent was added, and plates rocked for 10 min to 2 h at room temperature. […]

SMILES | IC50 ([1]; class symbols) [nM] | EC50 ([2]; class symbols) [nM] | IC50 ([1]; numeric values) [nM] | EC50 ([2]; numeric values) [nM]
C=C[C@@H]1C[C@]1(NC(=O)[C@@H]1C[C@]2(OC)CN1C(=O)[C@H](C(C)(C)C)NC(=O)OCC(C)(C)CCCc1cc3cc2ccc3cc1OC)C(=O)NS(=O)(=O)C1CC1 [Example 9] | 1 to 10 | 1 to 10 | – | –
C=C[C@@H]1C[C@]1(NC(=O)[C@@H]1C[C@]2(OC)CN1C(=O)[C@H](C(C)(C)C)NC(=O)OCCC(C)(C)CCCc1cc3cc2ccc3cc1OC)C(=O)NS(=O)(=O)C1CC1 [Example 17] | 1 to 10 | 1 to 10 | – | –
COc1cc2ccc3cc2cc1CCCC(C)(C)CCOC(=O)N[C@@H](C(C)(C)C)C(=O)N1C[C@@]3(OC)C[C@H]1C(=O)N[C@]1(C(=O)NS(=O)(=O)C2CC2)C[C@H]1C(F)F [Example 18] | 1 to 10 | 1 to 10 | – | –
COc1cc2ccc3cc2cc1CCCCCCOC(=O)N[C@@H](C(C)(C)C)C(=O)N1C[C@@]3(OC)C[C@H]1C(=O)N[C@]1(C(=O)NS(=O)(=O)C2CC2)C[C@H]1C1CC1 [Example 13] | 1 to 10 | 11 to 20 | – | –
C=C[C@@H]1C[C@]1(NC(=O)[C@@H]1C[C@]2(OC)CN1C(=O)[C@H](C(C)(C)C)NC(=O)OCC/C=C\c1cc3cc2ccc3cc1OC)C(=O)NS(=O)(=O)C1CC1 [Example 1] | – | – | 31 | 120
C=C[C@@H]1C[C@]1(NC(=O)[C@@H]1C[C@]2(OC)CN1C(=O)[C@H](C(C)(C)C)NC(=O)OCC(C)(C)C/C=C\c1cc3cc2ccc3cc1OC)C(=O)NS(=O)(=O)C1CC1 [Example 8] | 1 to 10 | 1 to 10 | – | –
COc1cc2ccc3cc2cc1CCCC(C)(C)CCOC(=O)N[C@@H](C(C)(C)C)C(=O)N1C[C@@]3(OC)C[C@H]1C(=O)N[C@]1(C(=O)NS(=O)(=O)C2CC2)C[C@H]1C1CC1 [Example 19] | 1 to 10 | 1 to 10 | – | –
C=C[C@@H]1C[C@]1(NC(=O)[C@@H]1C[C@]2(OC)CN1C(=O)[C@H](C(C)(C)C)NC(=O)OCC(C)(C)CCCCc1cc3cc2ccc3cc1OC)C(=O)NS(=O)(=O)C1CC1 [Example 14] | 1 to 10 | 1 to 10 | – | –
C=C[C@@H]1C[C@]1(NC(=O)[C@@H]1C[C@]2(OC)CN1C(=O)[C@H](C(C)(C)C)NC(=O)OCCCCCCc1cc3cc2ccc3cc1OC)C(=O)NS(=O)(=O)C1CC1 [Example 12] | – | – | 1 | 2.84
C=C[C@@H]1C[C@]1(NC(=O)[C@@H]1C[C@]2(OC)CN1C(=O)[C@H](C(C)(C)C)NC(=O)OCCCCC=Cc1cc3cc2ccc3cc1OC)C(=O)NS(=O)(=O)C1CC1 [Example 7] | 1 to 10 | 1 to 10 | – | –
COc1cc2ccc3cc2cc1CCCC(C)(C)COC(=O)N[C@@H](C(C)(C)C)C(=O)N1C[C@@]3(OC)C[C@H]1C(=O)N[C@]1(C(=O)NS(=O)(=O)C2CC2)C[C@H]1C1CC1 [Example 10] | 11 to 12 | 21 to 150 | – | –
COc1cc2ccc3cc2cc1CCCCC(C)(C)COC(=O)N[C@@H](C(C)(C)C)C(=O)N1C[C@@]3(OC)C[C@H]1C(=O)N[C@]1(C(=O)NS(=O)(=O)C2CC2)C[C@H]1C1CC1 [Example 15] | 1 to 10 | 1 to 10 | – | –
C=C[C@@H]1C[C@]1(NC(=O)[C@@H]1C[C@]2(OC)CN1C(=O)[C@H](C(C)(C)C)NC(=O)OCCC/C=C\c1cc3cc2ccc3cc1OC)C(=O)NS(=O)(=O)C1CC1 [Example 4] | 1 to 10 | 1 to 10 | – | –
COc1cc2ccc3cc2cc1CCCC(C)(C)COC(=O)N[C@@H](C(C)(C)C)C(=O)N1C[C@@]3(OC)C[C@H]1C(=O)N[C@]1(C(=O)NS(=O)(=O)C2CC2)C[C@H]1C(F)F [Example 11] | 1 to 10 | 11 to 20 | – | –
CC[C@@H]1C[C@]1(NC(=O)[C@@H]1C[C@]2(OC)CN1C(=O)[C@H](C(C)(C)C)NC(=O)OCC(C)(C)CCCCc1cc3cc2ccc3cc1OC)C(=O)NS(=O)(=O)C1CC1 [Example 16] | 11 to 12 | 21 to 150 | – | –
